From PubChem BioAssay AID1919015 (Molecular Pharmacology Branch, DTP, NCI, 2023)

System: OVCAR-5 complex spheroids with HUVEC/MSC, viability, % test/control
Assay: Anticancer human tumor OVCAR-5 cell line growth inhibition [AhR];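 further: spheroids exposed to compounds for 7 days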;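 on viability, T/C: 100% = DMSO vehicle control wells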
Settings: for IC50: curve of first compound; for viability, T/C: stronger effect = lower value
Outline: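 Spheroids combined tumor cells with HUVEC endothelial cells and human MSCs as stroma. AhR antagonists were paired with standard or investigational drugs, each dosed in half-log steps down from near clinical Cmax, or from 10 microM where Cmax was unknown.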

[1] = second compound 0.1 µM, first compound 0.0316 µM
[2] = second compound 0.1 µM, first compound 0.1 µM
[3] = second compound 0.1 µM, first compound 0.316 µM
[4] = second compound 0.1 µM, first compound 1 µM
[5] = second compound 0.316 µM, first compound 0.0316 µM
[6] = second compound 0.316 µM, first compound 0.1 µM
[7] = second compound 0.316 µM, first compound 0.316 µM
[8] = second compound 0.316 µM, first compound 1 µM
[9] = second compound 1 µM, first compound 0.0316 µM
[10] = second compound 1 µM, first compound 0.1 µM
[11] = second compound 1 µM, first compound 0.316 µM
[12] = second compound 1 µM, first compound 1 µM
[13] = second compound 3.16 µM, first compound 0.0316 µM
[14] = second compound 3.16 µM, first compound 0.1 µM
[15] = second compound 3.16 µM, first compound 0.316 µM
[16] = second compound 3.16 µM, first compound 1 µM
[17] = second compound 10 µM, first compound 0.0316 µM
[18] = second compound 10 µM, first compound 0.1 µM
[19] = second compound 10 µM, first compound 0.316 µM
[20] = second compound 10 µM, first compound 1 µM
[21] = second compound 0.1 µM, first compound 3.16 µM
[22] = second compound 0.1 µM, first compound 10 µM
[23] = second compound 0.316 µM, first compound 3.16 µM
[24] = second compound 0.316 µM, first compound 10 µM
[25] = second compound 1 µM, first compound 3.16 µM
[26] = second compound 1 µM, first compound 10 µM
[27] = second compound 3.16 µM, first compound 3.16 µM
[28] = second compound 3.16 µM, first compound 10 µM
[29] = second compound 10 µM, first compound 3.16 µM
[30] = second compound 10 µM, first compound 10 µM
[31] = second compound 0.1 µM, first compound 0.00949 µM
[32] = second compound 0.1 µM, first compound 0.03 µM
[33] = second compound 0.1 µM, first compound 0.0949 µM
[34] = second compound 0.1 µM, first compound 0.3 µM
[35] = second compound 0.316 µM, first compound 0.00949 µM
[36] = second compound 0.316 µM, first compound 0.03 µM
[37] = second compound 0.316 µM, first compound 0.0949 µM
[38] = second compound 0.316 µM, first compound 0.3 µM
[39] = second compound 1 µM, first compound 0.00949 µM
[40] = second compound 1 µM, first compound 0.03 µM
[41] = second compound 1 µM, first compound 0.0949 µM
[42] = second compound 1 µM, first compound 0.3 µM
[43] = second compound 3.16 µM, first compound 0.00949 µM
[44] = second compound 3.16 µM, first compound 0.03 µM
[45] = second compound 3.16 µM, first compound 0.0949 µM
[46] = second compound 3.16 µM, first compound 0.3 µM
[47] = second compound 10 µM, first compound 0.00949 µM
[48] = second compound 10 µM, first compound 0.03 µM
[49] = second compound 10 µM, first compound 0.0949 µM
[50] = second compound 10 µM, first compound 0.3 µM

Structure (SMILES): CC1COCCN1c1cc(-c2ccnn2C)c2ccnc(-c3ccn[nH]3)c2n1 (stereo not given) + Cc1cncc(-c2nc(NCCc3c[nH]c4ccccc34)c3ncn(C(C)C)c3n2)c1
- IC50 (second compound 0.1 µM): 273 nM
- IC50 (second compound 0.316 µM): 282 nM
- IC50 (second compound 1 µM): 265 nM
- IC50 (second compound 3.16 µM): 183 nM
- IC50 (second compound 10 µM): < 3.16 nM
- viability, T/C (second compound 0.1 µM, first compound 0.00316 µM): 107%
- viability, T/C (second compound 0.1 µM, first compound 0.01 µM): 103%
- viability, T/C [1]: 103%
- viability, T/C [2]: 83%
- viability, T/C [3]: 45.2%
- viability, T/C [4]: 32.9%
- viability, T/C (second compound 0.316 µM, first compound 0.00316 µM): 106%
- viability, T/C (second compound 0.316 µM, first compound 0.01 µM): 104%
- viability, T/C [5]: 105%
- viability, T/C [6]: 85%
- viability, T/C [7]: 46.3%
- viability, T/C [8]: 32.9%
- viability, T/C (second compound 1 µM, first compound 0.00316 µM): 97.3%
- viability, T/C (second compound 1 µM, first compound 0.01 µM): 99.2%
- viability, T/C [9]: 100%
- viability, T/C [10]: 78.2%
- viability, T/C [11]: 45.6%
- viability, T/C [12]: 33.9%
- viability, T/C (second compound 3.16 µM, first compound 0.00316 µM): 80.8%
- viability, T/C (second compound 3.16 µM, first compound 0.01 µM): 87.4%
- viability, T/C [13]: 84.2%
- viability, T/C [14]: 65.2%
- viability, T/C [15]: 36.5%
- viability, T/C [16]: 30.1%
- viability, T/C (second compound 10 µM, first compound 0.00316 µM): 12.8%
- viability, T/C (second compound 10 µM, first compound 0.01 µM): 12.8%
- viability, T/C [17]: 13.7%
- viability, T/C [18]: 10.6%
- viability, T/C [19]: 6.62%
- viability, T/C [20]: 7.97%

Structure (SMILES): CC1COCCN1c1cc(C2(S(C)(=N)=O)CC2)nc(-c2ccnc3[nH]ccc23)n1 (stereo not given) + Cc1cncc(-c2nc(NCCc3c[nH]c4ccccc34)c3ncn(C(C)C)c3n2)c1
- IC50 (second compound 0.1 µM): 9780 nM
- IC50 (second compound 0.316 µM): > 10000 nM
- IC50 (second compound 1 µM): 9580 nM
- IC50 (second compound 3.16 µM): 5840 nM
- IC50 (second compound 10 µM): < 31.6 nM
- viability, T/C [1]: 99.4%
- viability, T/C [2]: 102%
- viability, T/C [3]: 106%
- viability, T/C [4]: 101%
- viability, T/C [21]: 92%
- viability, T/C [22]: 49.1%
- viability, T/C [5]: 99.6%
- viability, T/C [6]: 98.4%
- viability, T/C [7]: 99.3%
- viability, T/C [8]: 103%
- viability, T/C [23]: 90%
- viability, T/C [24]: 51.6%
- viability, T/C [9]: 92%
- viability, T/C [10]: 95.6%
- viability, T/C [11]: 94.9%
- viability, T/C [12]: 96.4%
- viability, T/C [25]: 86%
- viability, T/C [26]: 48.5%
- viability, T/C [13]: 74.5%
- viability, T/C [14]: 79.2%
- viability, T/C [15]: 80.5%
- viability, T/C [16]: 82.4%
- viability, T/C [27]: 62.6%
- viability, T/C [28]: 38.9%
- viability, T/C [17]: 19.6%
- viability, T/C [18]: 22.8%
- viability, T/C [19]: 22.9%
- viability, T/C [20]: 18.6%
- viability, T/C [29]: 12.7%
- viability, T/C [30]: 6.44%

Structure (SMILES): COc1ccc([C@@H](O)c2cc(-c3ncnc4cc(N5CCOCC5)ccc34)c(F)cc2Cl)nn1 + Cc1cncc(-c2nc(NCCc3c[nH]c4ccccc34)c3ncn(C(C)C)c3n2)c1
- IC50 (second compound 0.1 µM): 3230 nM
- IC50 (second compound 0.316 µM): 3560 nM
- IC50 (second compound 1 µM): 2740 nM
- IC50 (second compound 3.16 µM): 1660 nM
- IC50 (second compound 10 µM): < 31.6 nM
- viability, T/C [1]: 104%
- viability, T/C [2]: 104%
- viability, T/C [3]: 100%
- viability, T/C [4]: 80.9%
- viability, T/C [21]: 50.9%
- viability, T/C [22]: 28.8%
- viability, T/C [5]: 104%
- viability, T/C [6]: 103%
- viability, T/C [7]: 94%
- viability, T/C [8]: 80%
- viability, T/C [23]: 52%
- viability, T/C [24]: 29.1%
- viability, T/C [9]: 98.7%
- viability, T/C [10]: 101%
- viability, T/C [11]: 95%
- viability, T/C [12]: 74.9%
- viability, T/C [25]: 47.1%
- viability, T/C [26]: 28.8%
- viability, T/C [13]: 83.5%
- viability, T/C [14]: 83.3%
- viability, T/C [15]: 79.8%
- viability, T/C [16]: 59.9%
- viability, T/C [27]: 36.5%
- viability, T/C [28]: 20%
- viability, T/C [17]: 14.2%
- viability, T/C [18]: 13.6%
- viability, T/C [19]: 12.2%
- viability, T/C [20]: 7.42%
- viability, T/C [29]: 4.87%
- viability, T/C [30]: 3.46%

Structure (SMILES): Nc1ncn(C2CC(O)C(CO)S2)c(=O)n1 (stereo not given) + Cc1cncc(-c2nc(NCCc3c[nH]c4ccccc34)c3ncn(C(C)C)c3n2)c1
- IC50 (second compound 0.1 µM): > 300 nM
- IC50 (second compound 0.316 µM): > 300 nM
- IC50 (second compound 1 µM): > 300 nM
- IC50 (second compound 3.16 µM): > 300 nM
- IC50 (second compound 10 µM): < 0.949 nM
- viability, T/C (second compound 0.1 µM, first compound 0.000949 µM): 99.8%
- viability, T/C (second compound 0.1 µM, first compound 0.003 µM): 101%
- viability, T/C [31]: 102%
- viability, T/C [32]: 98.4%
- viability, T/C [33]: 85.9%
- viability, T/C [34]: 80.6%
- viability, T/C (second compound 0.316 µM, first compound 0.000949 µM): 99.1%
- viability, T/C (second compound 0.316 µM, first compound 0.003 µM): 101%
- viability, T/C [35]: 96.8%
- viability, T/C [36]: 93.1%
- viability, T/C [37]: 85.5%
- viability, T/C [38]: 78.2%
- viability, T/C (second compound 1 µM, first compound 0.000949 µM): 87.8%
- viability, T/C (second compound 1 µM, first compound 0.003 µM): 88.7%
- viability, T/C [39]: 89.7%
- viability, T/C [40]: 79.7%
- viability, T/C [41]: 75.4%
- viability, T/C [42]: 70.9%
- viability, T/C (second compound 3.16 µM, first compound 0.000949 µM): 75.4%
- viability, T/C (second compound 3.16 µM, first compound 0.003 µM): 76.3%
- viability, T/C [43]: 75.5%
- viability, T/C [44]: 79.6%
- viability, T/C [45]: 63.2%
- viability, T/C [46]: 62.7%
- viability, T/C (second compound 10 µM, first compound 0.000949 µM): 18.3%
- viability, T/C (second compound 10 µM, first compound 0.003 µM): 17.9%
- viability, T/C [47]: 18%
- viability, T/C [48]: 15.2%
- viability, T/C [49]: 14.3%
- viability, T/C [50]: 15.1%

Structure (SMILES): O=C(C=Cn1cnc(-c2cc(C(F)(F)F)cc(C(F)(F)F)c2)n1)NNc1cnccn1 + Cc1cncc(-c2nc(NCCc3c[nH]c4ccccc34)c3ncn(C(C)C)c3n2)c1
- IC50 (second compound 0.1 µM): 2760 nM
- IC50 (second compound 0.316 µM): > 3000 nM
- IC50 (second compound 1 µM): 2430 nM
- IC50 (second compound 3.16 µM): 1450 nM
- IC50 (second compound 10 µM): < 9.49 nM
- viability, T/C [31]: 105%
- viability, T/C [32]: 108%
- viability, T/C [33]: 102%
- viability, T/C [34]: 87.4%
- viability, T/C (second compound 0.1 µM, first compound 0.949 µM): 67.7%
- viability, T/C (second compound 0.1 µM, first compound 3 µM): 48.4%
- viability, T/C [35]: 107%
- viability, T/C [36]: 109%
- viability, T/C [37]: 107%
- viability, T/C [38]: 86.4%
- viability, T/C (second compound 0.316 µM, first compound 0.949 µM): 68.9%
- viability, T/C (second compound 0.316 µM, first compound 3 µM): 49.8%
- viability, T/C [39]: 105%
- viability, T/C [40]: 108%
- viability, T/C [41]: 106%
- viability, T/C [42]: 89.4%
- viability, T/C (second compound 1 µM, first compound 0.949 µM): 71%
- viability, T/C (second compound 1 µM, first compound 3 µM): 45.3%
- viability, T/C [43]: 98.1%
- viability, T/C [44]: 99.5%
- viability, T/C [45]: 99.6%
- viability, T/C [46]: 79.8%
- viability, T/C (second compound 3.16 µM, first compound 0.949 µM): 62%
- viability, T/C (second compound 3.16 µM, first compound 3 µM): 31.8%
- viability, T/C [47]: 16.3%
- viability, T/C [48]: 15%
- viability, T/C [49]: 15.9%
- viability, T/C [50]: 16.4%
- viability, T/C (second compound 10 µM, first compound 0.949 µM): 13.3%
- viability, T/C (second compound 10 µM, first compound 3 µM): 12.6%
